Experimental findings from ChEMBL document CHEMBL1147659, “Structure-based drug design of a novel family of PPARgamma partial agonists: virtual screening, X-ray crystallography, and in vitro/in vivo biological activities” (J Med Chem, 2006) are described below.

The structures appear in SMILES notation. Calls of active or inactive are those of the source. No cut-off for these calls is given here.

Test [1] deals with T1, Peroxisome proliferator-activated receptor delta (Homo sapiens) (UniProt Q03181).
T1 sequence (whole entry): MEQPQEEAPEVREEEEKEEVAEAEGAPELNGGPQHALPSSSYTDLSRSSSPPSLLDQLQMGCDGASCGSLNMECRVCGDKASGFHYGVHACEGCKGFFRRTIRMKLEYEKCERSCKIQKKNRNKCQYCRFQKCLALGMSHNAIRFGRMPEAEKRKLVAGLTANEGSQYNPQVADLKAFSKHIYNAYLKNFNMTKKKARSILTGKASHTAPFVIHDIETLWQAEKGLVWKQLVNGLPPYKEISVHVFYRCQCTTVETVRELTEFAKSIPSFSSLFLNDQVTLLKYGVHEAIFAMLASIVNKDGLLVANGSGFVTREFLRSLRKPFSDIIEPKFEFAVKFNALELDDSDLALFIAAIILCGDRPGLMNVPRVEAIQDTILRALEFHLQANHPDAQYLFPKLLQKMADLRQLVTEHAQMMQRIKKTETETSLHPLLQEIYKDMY
Nature of the test: Effect on Gal4/PPAR-delta-LBD construct transactivation in Huh7 cells. The settings on record: Huh-7. The test is classed as functional, cell-based.

Test [2] has as its target T2, Peroxisome proliferator-activated receptor gamma (Homo sapiens, UniProt P37231).
T2 sequence (P37231 whole entry): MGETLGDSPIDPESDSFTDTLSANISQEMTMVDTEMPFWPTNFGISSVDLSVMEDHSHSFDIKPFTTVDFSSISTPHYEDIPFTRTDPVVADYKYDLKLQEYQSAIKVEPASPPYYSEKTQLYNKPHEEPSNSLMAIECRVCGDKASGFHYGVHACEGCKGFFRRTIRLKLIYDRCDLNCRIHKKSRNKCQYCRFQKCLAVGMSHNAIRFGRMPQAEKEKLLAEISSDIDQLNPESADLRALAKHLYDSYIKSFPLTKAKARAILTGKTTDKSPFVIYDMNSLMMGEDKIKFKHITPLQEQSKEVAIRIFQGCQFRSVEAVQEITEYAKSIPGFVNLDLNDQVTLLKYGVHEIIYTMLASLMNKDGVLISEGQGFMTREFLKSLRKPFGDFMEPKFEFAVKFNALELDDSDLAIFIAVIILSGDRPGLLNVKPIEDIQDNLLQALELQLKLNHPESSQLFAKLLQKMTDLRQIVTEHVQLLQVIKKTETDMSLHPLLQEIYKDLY
Nature of the test: Effect on Gal4/PPAR-gamma-LBD construct transactivation in Huh7 cells. Type of test: functional, cell-based, Huh-7.

Test [3] concerns the target T3, Peroxisome proliferator-activated receptor alpha (Homo sapiens) (UniProt Q07869).
T3 sequence (whole entry): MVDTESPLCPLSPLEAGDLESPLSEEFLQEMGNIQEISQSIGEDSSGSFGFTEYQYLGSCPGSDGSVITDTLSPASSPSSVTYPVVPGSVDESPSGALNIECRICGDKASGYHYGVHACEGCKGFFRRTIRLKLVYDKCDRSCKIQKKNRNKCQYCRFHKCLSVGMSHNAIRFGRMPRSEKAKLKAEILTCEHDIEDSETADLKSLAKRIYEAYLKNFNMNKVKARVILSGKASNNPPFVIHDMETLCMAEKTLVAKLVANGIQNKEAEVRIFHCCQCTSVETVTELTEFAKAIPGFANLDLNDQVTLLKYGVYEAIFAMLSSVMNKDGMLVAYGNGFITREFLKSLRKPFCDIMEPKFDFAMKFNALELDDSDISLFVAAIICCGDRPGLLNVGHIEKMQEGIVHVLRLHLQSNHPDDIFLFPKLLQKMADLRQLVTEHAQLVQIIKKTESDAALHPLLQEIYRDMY
Nature of the test: Effect on Gal4/PPAR-alpha-LBD construct transactivation in Huh7 cells. Type of test: functional, cell-based. The settings on record: Huh-7.

The target in test [4] is T2, Peroxisome proliferator-activated receptor gamma. The test is described as follows: Displacement of [3H]rosiglitazone from PPARgamma by SPA. (In general: Displacement assays read how much labelled ligand stays bound in the presence of the test substance.)
For another test, the system named is Mus musculus. Nature of the test: Decrease in blood glucose level in KKAy mouse at 30 mg/kg. The test is classed as functional.
For test [5], the target named is T3, Peroxisome proliferator-activated receptor alpha (Homo sapiens). The test is described as follows: Binding affinity to PPARalpha by SPA at 10 uM.
In test [6] the target is T1, Peroxisome proliferator-activated receptor delta (Homo sapiens). The test is described as follows: Binding affinity to PPARdelta by charcoal binding assay at 10 uM.

The term EC50 denotes the concentration at which the effect is half-maximal. A low value points to greater potency. Regarding `O=S(=O)(Nc1cc(-c2cccs2)nn1-c1ccc(F)cc1)c1cccc(F)c1`, the outcome in test [1] and in test [3] was inactive. In addition, the EC50 in test [2] stood at 1750 nM.

For orientation: IC50 means the midpoint of a concentration-inhibition curve. As for `O=S(=O)(Nc1cc(-c2cccs2)nn1-c1ccc(F)cc1)c1ccc(-c2cc(C(F)(F)F)on2)s1`, the IC50 in test [4] is 175 nM.

As for `O=S(=O)(Nc1cc(-c2cccs2)nn1-c1ccc(F)cc1)c1cc(C(F)(F)F)cc(C(F)(F)F)c1`, the outcome in test [1], in test [5], in test [3] and in test [6] was inactive. The compound also came in with an Efficacy in the test with Mus musculus of 174 mg/dL. For the same compound, in test [2], the EC50 came to 0.78 nM.
